One molecule from US20260102502A1, “C[…] COMPOSITIONS FOR TARGETED […]” (priority 2022, published 2026) can be followed below.

For orientation: solubility means the concentration that dissolves in the medium under given conditions.

This data set is described as follows: water solubility of free drug and dendrimer-drug conjugates.

As to `CCCCCCC(C)(C)c1cc(OC)c([C@@H]2C=C(CO)[C@@H]3C[C@H]2C3(C)C)c(OC)c1` [Hu308], the “Water Solubility Free drug*” value (free, unconjugated drug of GD-Hu308 (Table 4)) is less than 100 µg/mL. The molecule also gave a solubility (water) of less than 100 µg/mL.
